Values after ≈ are worked out from the molar mass of the structure shown.
Key:
[1] = test system: Staphylococcus aureus; assay: Antibacterial susceptibility testing: IC90 determination (broth microdilution, resazurin fluorescence); format: cell-based; conditions: 90% inhibitory concentration for bacterial growth, Mueller Hinton broth, 35° C., 16-20 hours, strain not given
Method: Preparation of Bacterial Suspensions for Susceptibility Testing
The following bacteria were used: Staphylococcus aureus ATCC 29213, methicillin-resistant Staphylococcus aureus (MRSA) ATCC 700788 and Escherichia coli ATCC 35218. The bacteria used in this study were grown overnight in flasks containing 100 ml Mueller-Hinton broth (Difco cat. nr. 0757-17) in sterile de-ionized water, with shaking, at 37° C. Stocks were store at −70° C. until use.
Bacteria were incubated on a tryptic soy agar plate containing 5% sheep blood (Becton Dickinson cat. nr. 254053) for 18-24 hours at 35° C. in aerobic conditions (first passage). For the second passage, fresh Mueller-Hinton broth is inoculated with 5-10 colonies and grown overnight at 35° C. until turbidity (reaching log-phase) in aerobic conditions is reached. The bacterial suspension is then adjusted to 0.5 McFarland density and further diluted 1:100 in Mueller Hinton broth medium. This is used as inoculum.
Antibacterial Susceptibility Testing: IC90 Determination
MIC assays were performed by the broth microdilution method in a 96-well format (flat-bottom microtitre plates) with a final volume of 0.1 ml Mueller Hinton broth containing two-fold serial dilutions of compounds and inoculated with 5×10^5 CFU/ml of bacteria (standard inoculum size according to CLSI guidelines). Inhibitors are typically varied over the range of 63 to 0.49 μM. The final DMSO concentration in the assay was 1.25% (maximum tolerable DMSO concentration=6%). In the assays where the effect of human serum on the activity of the compounds against S. aureus was tested, human serum was added at a final concentration of 10%. The plates were incubated at 35° C. for 16-20 hours. At the end of incubation the bacterial growth was quantified fluorometrically. For this, resazurin was added to all wells and the plates were re-incubated. The incubation time is dependent on the type of bacteria. A change in color from blue to pink indicated the growth of bacteria. The fluorescence was read in computer-controlled fluorometer (Fluoroskan Ascent FL, Labsystems) at an excitation wavelength 540 nm and an emission wavelength of 590 nm. The % growth inhibition achieved by the compounds was calculated according to standard methods. The IC90 (expressed in μg/ml) was defined as the 90% inhibitory concentration for bacterial growth. A panel of reference compounds were simultaneously tested for QC approval.

[2] = Cytotoxicity MTT assay; format: cell-based; conditions: human, HelaM cells, concentration that causes 50% reduction in cell viability
Method: Cytotoxicity of the compounds was evaluated using the MTT assay. Human HelaM cells grown in 96-well plates were exposed to serial dilutions of the tested compounds (final volume of 0.2 ml) and incubated for 72 hours at 37° C. and 5% CO2 Inhibitors are typically varied over the range of 25 to 0.8 μM. The final DMSO concentration in the assay is 0.5%. MTT (3-(4,5-Dimethylthiazol-2-yl)-2,5-diphenyltetrazolium bromide, a tetrazole) was added and reduced to purple formazan only in living cells. Solubilization of the formazan crystals was achieved by adding 100 μl 2-propanol. Cell viability was determined by measuring the absorbance of the reduced formazan, giving a purple color, at 540 nm and 690 nm. The absorbance measured at 690 nm was automatically subtracted from the absorbance at 540 nm, to eliminate the effects of non-specific absorption. The percent cytotoxicity achieved by the compounds was calculated according to standard methods. Cytotoxicity is reported as CC50, the concentration that causes a 50% reduction in cell viability.

N#Cc1cccc(-c2cnc(-c3ccncc3)nc2C2CCCN(CC(F)(F)F)C2)c1 (stereo not drawn) [Compound 59]
IC90 [1]: > 26.7 µg/mL | CC50 at 72 h [2]: > 10.6 µg/mL | melting point: 163 to 164 °C

COc1cccc(-c2cnc(-c3ccncc3)nc2C2CCN(CC(F)F)CC2)c1 [Compound 56]
IC90 [1]: 1.49 µg/mL (≈ 3.63 µM) | CC50 at 72 h [2]: > 10.3 µg/mL | melting point: 123 °C

Cc1ccccc1-c1cnc(-c2ccncc2)nc1C1CCN(CC(C)(C)C)CC1 [Compound 50]
IC90 [1]: 9.61 µg/mL (≈ 24 µM) | CC50 at 72 h [2]: > 4 µg/mL | melting point: 208 °C

COc1cccc(-c2cnc(-c3ccncc3)nc2C2CCN(CC3CCCCC3)CC2)c1 [Compound 17]
IC90 [1]: 13.4 µg/mL (≈ 30.2 µM) | CC50 at 72 h [2]: > 11.1 µg/mL | melting point: 130 °C

COc1cccc(-c2cnc(-c3ccncc3)nc2C2CCN(Cc3ccccc3C#N)CC2)c1 [Compound 42]
IC90 [1]: 6.75 µg/mL (≈ 14.6 µM) | CC50 at 72 h [2]: 5.1 µg/mL (≈ 11 µM) | melting point: 158 °C

CC(C)(C)CN1CCC(c2nc(-c3cncnc3)ncc2-c2cccc(C#N)c2)CC1 [Compound 68]
IC90 [1]: 6.1 µg/mL (≈ 14.8 µM) | CC50 at 72 h [2]: > 10.4 µg/mL | melting point: 163 to 170 °C

COc1cccc(-c2cnc(-c3ccncc3)nc2C2CCN(Cc3cccc(C#N)c3)CC2)c1 [Compound 31]
IC90 [1]: 7.32 µg/mL (≈ 15.9 µM) | CC50 at 72 h [2]: 4.2 µg/mL (≈ 9.1 µM) | melting point: 140 °C

COc1cccc(-c2cnc(-c3ccncc3)nc2C2CCN(Cc3ccsc3)CC2)c1 [Compound 4]
IC90 [1]: 12.9 µg/mL (≈ 29.2 µM) | CC50 at 72 h [2]: > 11.1 µg/mL | melting point: 135 °C

COc1cccc(-c2cnc(-c3cccnc3)nc2C2CCN(C(=O)C(C)Oc3ccccc3)CC2)c1 (stereo not drawn) [Compound 27]
IC90 [1]: 9.1 µg/mL (≈ 18.4 µM) | CC50 at 72 h [2]: 7.1 µg/mL (≈ 14.4 µM) | melting point: 138 to 140 °C

COc1cccc(-c2cnc(-c3ccncc3)nc2C2CCN(C(=O)C(C)Oc3ccccc3)CC2)c1 (stereo not drawn) [Compound 20]
IC90 [1]: 7.15 µg/mL (≈ 14.5 µM) | CC50 at 72 h [2]: 8.1 µg/mL (≈ 16.4 µM)

Cc1cccc(-c2cnc(-c3ccncc3)nc2C2CCN(Cc3cccc(F)c3)CC2)c1 [Compound 14]
IC90 [1]: 9.16 µg/mL (≈ 20.9 µM) | CC50 at 72 h [2]: > 11 µg/mL | melting point: 195 to 196 °C

CC(C)(C)CN1CCC(c2nc(-c3ccncc3)ncc2-c2cccc(C#N)c2)CC1 [Compound 54]
IC90 [1]: 1.29 µg/mL (≈ 3.13 µM) | CC50 at 72 h [2]: > 10.3 µg/mL | melting point: 155 °C

Cc1cccc(-c2cnc(-c3ccncc3)nc2C2CCN(Cc3ccccc3O)CC2)c1 [Compound 8]
IC90 [1]: 5.5 µg/mL (≈ 12.6 µM) | CC50 at 72 h [2]: > 4.4 µg/mL | melting point: 149 to 151 °C

CC(C)(C)CN1CCC(c2nc(C3CC3)ncc2-c2cccc(C#N)c2)CC1 [Compound 63]
IC90 [1]: 2.74 µg/mL (≈ 7.32 µM) | CC50 at 72 h [2]: > 9.4 µg/mL | melting point: 125 to 126 °C

CC(C)(C)CN1CCC(c2nc(-c3cccnc3)ncc2-c2cccc(C#N)c2)CC1 [Compound 69]
IC90 [1]: 3.02 µg/mL (≈ 7.34 µM) | CC50 at 72 h [2]: > 10.3 µg/mL | melting point: 148 to 150 °C

COc1cccc(-c2cnc(-c3ccccn3)nc2C2CCN(Cc3cc(Cl)ccc3O)CC2)c1 [Compound 23]
IC90 [1]: 7.37 µg/mL (≈ 15.1 µM) | CC50 at 72 h [2]: 4.4 µg/mL (≈ 9.03 µM) | melting point: 165 to 166 °C

COc1cccc(-c2cnc(-c3ccncc3)nc2C2CCN(CC(F)(F)F)CC2)c1 [Compound 55]
IC90 [1]: 0.39 µg/mL (≈ 0.91 µM) | CC50 at 72 h [2]: 6.3 µg/mL (≈ 14.7 µM)

COc1cccc(-c2cnc(-c3ccncc3)nc2N2CCC(NC(=O)C(C)Oc3ccccc3)CC2)c1 (stereo not drawn) [Compound 22]
IC90 [1]: 5.16 µg/mL (≈ 10.1 µM) | CC50 at 72 h [2]: 8.5 µg/mL (≈ 16.7 µM) | melting point: 106 to 108 °C

C/C=C(\C)CN1CCC(c2nc(-c3ccncc3)ncc2-c2cccc(OC)c2)CC1 [Compound 2]
IC90 [1]: 13.7 µg/mL (≈ 33.1 µM)

COc1cccc(-c2cnc(-c3ccc(F)cc3)nc2C2CCN(CC(F)(F)F)CC2)c1 [Compound 71]
IC90 [1]: < 0.22 µg/mL

COc1ccc(-c2cnc(N(C)C)nc2C2CCN(CC(C)(C)C)CC2)cc1 [Compound 53]
IC90 [1]: 5.47 µg/mL (≈ 14.3 µM) | CC50 at 72 h [2]: 7.5 µg/mL (≈ 19.6 µM)

COc1cccc(-c2cnc(-c3ccncc3)nc2C2CCN(Cc3sccc3C)CC2)c1 [Compound 1]
IC90 [1]: 8.5 µg/mL (≈ 18.6 µM)

Source: patent US9725432B2, “Pyrimidine derivatives for the treatment of bacterial diseases” (JANSSEN R&D IRELAND, priority 2012, dated 2017)
